EP0359062B1, “Antibiotic GE 2270” (priority 1988, dated 1990)

Tested on: Enterococcus faecalis strain L 149
Assay: Bactericidal activity, time-kill curves
Type: cell-based
Settings: 8 mg/I, in 48 h; inoculum 1.4 x 10^7 CFU/ml
Experimental: Time-kill curves were run in 10 ml of Todd-Hewitt broth in 100 ml Erlenmeyer flasks, incubated at 37°C without agitation. A logarithmically growing culture of Enterococcus faecalis strain L 149 was inoculated at 1.4 x 10^7 CFU/ml.
The reference antibiotic (teicoplanin, 8 mg/I) killed 99% of the infecting bacteria in 48 h, while antibiotic GE 2270 factor A (0.13 mg/I) killed 99.8% of the bacteria within 2 h and 99.99% within 48 h at this dose or within 24 h at 4 mg/I.

teicoplanin
killed bacteria: 99%
